Experimental data: the CheMixHub viscosity set
Where “and” joins values, the source holds several entries; their conditions need not be identical. Equal entries are not always repeated.

Test: xn = mol fraction of the nth substance listed

CCCCCCCCCCCCCCCC(=O)O + CC(C)[C@@H]1CC[C@@H](C)C[C@H]1O
100 kPa, x1 = 0.15
Conditions	viscosity [mPa·s]
313.15 K	15.25
318.15 K	11.78
323.15 K	9.29

ClCCCl + CCCCO
viscosity [mPa·s], 101 kPa
Conditions	x2 = 0.0969	x2 = 0.2052	x2 = 0.3178	x2 = 0.4683	x2 = 0.5618	x2 = 0.6768	x2 = 0.856
303.15 K	0.7121	0.7449	0.8081	0.9418	1.062	1.272	1.744
313.15 K	0.6205	0.6427	0.692	0.7892	0.8734	1.036	1.378
323.15 K	0.5584	0.571	0.6061	0.6791	0.7447	0.8711	1.123

CC(=O)O + CCO
298.15 K, 101.33 kPa
Conditions	viscosity [mPa·s]
x2 = 0.0808	1.246
x2 = 0.2919	1.327
x2 = 0.3542	1.335
x2 = 0.5697	1.24
x2 = 0.6571	1.195
x2 = 0.75	1.15

ClCCl + c1ccccc1
101.33 kPa
Conditions	viscosity [mPa·s]
293.15 K, x1 = 0.1454	0.591
293.15 K, x1 = 0.259	0.559
293.15 K, x1 = 0.3662	0.531
293.15 K, x1 = 0.4451	0.513
293.15 K, x1 = 0.5158	0.498
293.15 K, x1 = 0.5932	0.484
293.15 K, x1 = 0.6593	0.471
293.15 K, x1 = 0.714	0.463
293.15 K, x1 = 0.764	0.456
298.15 K, x1 = 0.2149	0.535
298.15 K, x1 = 0.2959	0.514
298.15 K, x1 = 0.3817	0.497
298.15 K, x1 = 0.4921	0.477
298.15 K, x1 = 0.5445	0.466
298.15 K, x1 = 0.5957	0.458
298.15 K, x1 = 0.6358	0.452
298.15 K, x1 = 0.6923	0.445
303.15 K, x1 = 0.1659	0.516
303.15 K, x1 = 0.2665	0.494
303.15 K, x1 = 0.3831	0.468
303.15 K, x1 = 0.4907	0.446
303.15 K, x1 = 0.5944	0.429
303.15 K, x1 = 0.6777	0.419
303.15 K, x1 = 0.7557	0.412
303.15 K, x1 = 0.8164	0.406

O=S(=O)(O)O + O
100 kPa
Conditions	viscosity [mPa·s]
303.15 K, x1 = 0.007147	0.8615
313.15 K, x1 = 0.0566	1.125

ClCCl + ClC(Cl)(Cl)Cl
Conditions	viscosity [mPa·s]
303.15 K, 101.3 kPa, x2 = 0.506	0.5396

CC(=O)O + Cc1ccccc1
viscosity [mPa·s]
Conditions	293.15 K	303.15 K	313.15 K	323.15 K
101 kPa, x2 = 0.0642	–	–	0.9448	0.8122
101 kPa, x2 = 0.2052	–	–	0.6513	0.4846
101 kPa, x2 = 0.7929	–	–	0.4859	0.4171
101.33 kPa, x2 = 0.022	1.143	0.9772	0.8709	0.7709
101.33 kPa, x2 = 0.0569	1.06	0.907	0.8111	0.7288
101.33 kPa, x2 = 0.1191	0.9245	0.8216	0.731	0.641
101.33 kPa, x2 = 0.1879	0.8359	0.741	0.6554	0.59
101.33 kPa, x2 = 0.2626	0.7694	0.6753	0.603	0.5446
101.33 kPa, x2 = 0.352	0.7293	0.6216	0.561	0.5072
101.33 kPa, x2 = 0.4459	0.6757	0.5903	0.522	0.474
101.33 kPa, x2 = 0.4893	0.6542	0.5766	0.5131	0.4647
101.33 kPa, x2 = 0.5579	0.6349	0.5578	0.5022	0.4559
101.33 kPa, x2 = 0.6302	0.6233	0.5464	0.491	0.4486
101.33 kPa, x2 = 0.6817	0.6144	0.5382	0.4828	0.4384
101.33 kPa, x2 = 0.7391	0.6055	0.5304	0.4757	0.4319
101.33 kPa, x2 = 0.861	0.5941	0.5201	0.4619	0.42
101.33 kPa, x2 = 0.9262	0.588	0.513	0.4611	0.4194
101.33 kPa, x2 = 0.9645	0.5842	0.5088	0.4574	0.4163

NC(=O)CC[C@H](N)C(=O)O + O
viscosity, 101 kPa
Conditions	x1 = 0.00045	x1 = 0.0009	x1 = 0.001	x1 = 0.00135	x1 = 0.001798	x1 = 0.002247	x1 = 0.002695	x1 = 0.003
298.15 K	0.897 mPa·s	–	–	0.909 mPa·s	0.915 mPa·s	–	0.9269 mPa·s	0.9238 mPa·s and 0.9238 mPa·s
303.15 K	0.8032 mPa·s	–	0.812 mPa·s	0.8135 mPa·s	0.8186 mPa·s	0.8237 mPa·s	0.8288 mPa·s	0.8262 mPa·s and 0.8262 mPa·s
308.15 K	–	0.7288 mPa·s	0.7318 mPa·s and 0.7318 mPa·s	–	–	–	0.7464 mPa·s	0.7442 mPa·s
313.15 K	–	0.6613 mPa·s	–	0.6651 mPa·s	0.6689 mPa·s	0.6727 mPa·s	0.6765 mPa·s	0.6746 mPa·s
318.15 K	0.6013 mPa·s	0.6048 mPa·s	0.6071 mPa·s	0.6082 mPa·s	0.6115 mPa·s	0.6148 mPa·s	0.6181 mPa·s	0.6166 mPa·s

CC(=O)O + CC(C)=O
viscosity [mPa·s], 101 kPa
Conditions	293.15 K	298.15 K	303.15 K	313.15 K
x1 = 0.0996	–	0.3496	–	–
x1 = 0.13	0.3909	–	0.3546	0.3238
x1 = 0.2035	–	0.4046	–	–
x1 = 0.222	0.4389	–	0.3976	0.3607
x1 = 0.302	0.4916	–	0.4411	0.3993
x1 = 0.3025	–	0.4636	–	–
x1 = 0.4025	0.5632	–	0.5015	0.4518
x1 = 0.4049	–	0.535	–	–
x1 = 0.4986	–	0.6098	–	–
x1 = 0.5066	0.6549	–	0.5766	0.5138
x1 = 0.5973	–	0.6994	–	–
x1 = 0.605	0.7515	–	0.6562	0.5817
x1 = 0.6968	–	0.8024	–	–
x1 = 0.6994	0.8612	–	0.7482	0.6564
x1 = 0.8015	–	0.9213	–	–
x1 = 0.805	0.9881	–	0.8527	0.7437
x1 = 0.9011	1.103	–	0.9472	0.8218
x1 = 0.9037	–	1.036	–	–

C1CCC2=[NH+]CCCN2CC1.c1c[n-]cn1 + CCO
298.15 K, 100 kPa
Conditions	viscosity [mPa·s]
x1 = 0.0998	1.95
x1 = 0.1996	3.268
x1 = 0.2995	5.15
x1 = 0.3994	7.752
x1 = 0.4994	10.78
x1 = 0.5994	14.23
x1 = 0.6995	19.14
x1 = 0.7996	23.96
x1 = 0.8998	28.78
